Laboratory results taken from patent US20200197335A1, “CANCER THERAPEUTIC” (priority 2017, published 2020).
Like-named read-outs stand apart in the source and are kept apart here.

Legend:
[1] = cited from earlier work
[2] = test system: Squamous Cell Carcinoma; details: propranolol 160 mg daily with curcumin and celebrex, five weeks; reduced to 40 mg daily
[3] = test system: Stage IV Adenocarcinoma of Lung; assay: Treatment of Patient X with Stage IV adenocarcinoma of lung, followed by repeat PET CT; type: in vivo, human
Protocol: Commenced RAS modulation: • Aspirin: 300mg once daily • Start Date: 20 Jun. 2015
2015 • + Cilazapril: 2.5 mg once daily • Start Date: 26 Nov. 2015
2015 • + Doxycycline: 100mg once daily • Start Date: 20 Feb. 2016

[4] = piperine included in the curcumin formulation; cited from earlier work
[5] = test system: several tumoral cell lines; details: cited from earlier work

In the case of CC(C)NCC(O)COc1cccc2ccccc12 (racemic) [Propranolol, (RS)-1-(1-methylethylamino)-3-(1-naphthyloxy)propan-2-ol], the Uncommon side effects ([1]; Uncommon (0.1-0.9%)) is listed as “Gastrointestinal disturbance, such as nausea, vomiting, diarrhoea” and the “Adverse effects leading to dose reduction” value [2] is listed as “feeling ‘weak in the legs’ and had two episodes of falls”.
For CC(=O)Oc1ccccc1C(=O)O [Aspirin, acetylsalicylic acid], the “Repeat PET CT” value ([3]; 28 Jul. 2015, Aspirin 300mg once daily from 20 Jun. 2015) is listed as “static appearance with low levels of activity remaining at both the primary and left lung metastasis sites”, the Common side effects ([1]; in vivo) is listed as “Increased bleeding tendencies, dyspepsia” and the Rare side effects ([1]; in vivo) is listed as “Thrombocytopenia, agranulocytosis, aplastic anaemia, hypersensitivity reactions, angio-oedema, allergic oedema, anaphylactic reactions including shock”. The Uncommon side effects ([1]; in vivo) was “Urticaria, rhinitis, dyspnoea”.
For Cc1ccc(-c2cc(C(F)(F)F)nn2-c2ccc(S(N)(=O)=O)cc2)cc1 [Celecoxib, 4-[5-(4-methylphenyl)-3-(trifluoromethyl)pyrazol-1-yl]benzenesulfonamide], the “Diarrhoea, frequency” value ([1]; listed as common) is listed as 4-10%, the “Headache, frequency” value ([1]; listed as common) is listed as 10-15% and the “Hypertension, frequency” value ([1]; listed as common) is listed as 2-12%. The “Nausea, frequency” value ([1]; listed as common) was 3-7%, the “Gastrointestinal haemorrhage, frequency” value ([1]; listed as serious) was “less than 0.1%” and the “Gastrointestinal perforation, frequency” value ([1]; listed as serious) was “less than 0.1%”. The “Thrombosis, frequency” value ([1]; listed as serious) was 1.2%.
In the case of CCOC(=O)[C@H](CCc1ccccc1)N[C@H]1CCCN2CCC[C@@H](C(=O)O)N2C1=O [Cilazapril, (4S,7S)-7-[[(2S)-1-Ethoxy-1-oxo-4-phenylbutan-2-yl]amino]-6-oxo-1,2,3,4,7,8,9,10-octahydropyridazino[1,2-a]diazepine-4-carboxylic acid], the Common side effects ([1]; in vivo) is listed as “Fatigue, hypotension, dyspepsia, nausea and other gastrointestinal disturbances, headache, rash and coughing”, the Rare side effects ([1]; in vivo) is listed as “Skin rashes including erythema multiforme and toxic epidermal necrolysis may occur. Photosenstivity, alopecia and other hypersensitivity reactions” and the Uncommon side effects ([1]; in vivo) is listed as “Tachycardia, palpitations and chest pain”.
For CCCCc1nc(Cl)c(CO)n1Cc1ccc(-c2ccccc2-c2nn[nH]n2)cc1 [Losartan], the Common side effects ([1]; in vivo) is given as “Cold or flu symptoms such as stuffy nose, sneezing, sore throat, fever, muscle cramps, pain in the legs or back, stomach pain, diarrhoea, headache, dizziness, tired feeling, sleep problems (insomnia)”.
In the case of CN(C)C(=N)N=C(N)N [Metformin, N,N-dimethylimidodicarbonimidic diamide], the “Mild gastrointestinal symptoms (diarrhoea, nausea, vomiting, loss of appetite), frequency” value ([1]; especially during the initial treatment period) is given as > 1/10 and the “Metallic taste, frequency” value ([1]; worded 'Common' within the Very Rare paragraph) is given as 3%.
With C#Cc1cccc(Nc2ncnc3cc(OCCOC)c(OCCOC)cc23)c1 [Tarceva] the “Repeat PET CT” value ([3]; 1 Apr. 2015, on Tarceva) was “new right para-aortic node with high avidity” and the “Repeat PET CTs” value ([3]; 12 Jul. 2011 to 5 Nov. 2013, Tarceva 150mg once daily from 2 Jun. 2011) was “remission of the cancer”.
In the case of O=C(C=CC=Cc1ccc2c(c1)OCO2)N1CCCCC1 [piperine, 1-[5-(1,3-Benzodioxol-5-yl)-1-oxo-2,4-pentadienyl]piperidine], the “Effect on bioavailability of Curcumin” value [4] is listed as “increases the bioavailability of Curcumin”.
For [Pt(dmba)(aza-N1)(dmso)] complex 1, the “IC50 relative to cisplatin” value [5] is listed as “lower IC50 than cisplatin”.
